Source: patent publication US8574578B2, “Antibodies against PDGFRα to inhibit tumor growth” (ImClone LLC, priority 2006, dated 2013)

Columns and labels:
[1] = tested on: Akt phosphorylation in PC3-ML cells; test: Akt phosphorylation in PC3-ML cells (Western blot); assay type: cell-based, human; details: 20 μM AG-1296
Experimental: Bone marrow samples from normal male donors (ages 18-45) were supplied by Cambrex (Poietics™ Donor Program). Samples were centrifuged at 1,500 rpm in order to separate the soluble and cellular phases. The supernatant was filtered using 0.8 μm and 0.22 μm filters in succession. 50 μl of bone marrow aspirate was administered to cells in 1 ml of medium (1:20 final dilution).
For experiments performed in the presence of serum, cells were cultured in DMEM supplemented with 10% FBS and 50 μg/ml gentamycin for 24 hours prior to exposure to bone marrow. For experiments in the absence of serum (starved cells), cells were washed twice with PBS, the growth medium was replaced with serum-free DMEM, and the cells were incubated for 4 hours prior to exposure to bone marrow preparations. When used, AG-1296, a specific inhibitor of PDGF receptors (Rice et al., 1999, Amer. J. Path. 155, 213-21) was added to cultures 30 min. prior to exposure to bone marrowaspirate. IMC-3G3 antibodies were administered as described at pre-treatment times as stated below.

murine IGF-IR = murine IGF-IR (Mus musculus, UniProt Q60751); test: Cross-reactivity of A12 with murine IGF-IR; assay type: binding
LuCaP 23.1 xenograft = test: IMC-A12 treatment of LuCaP 23.1 intratibial xenografts (PSA, BMD, radiographs); assay type: in vivo, castrated SCID mice
Experimental: Anti-IGF-IR antibody therapy for bone metastases. The effectiveness of treatment with anti-IGF-IR antibodies on metastatic growth of prostate cancer cells in bone was evaluated using prostate cancer cells injected directly into the tibia of SCID mice. By this method, metastatic tumors are established directly without reliance on chemotaxis dependent invasion from the circulation. A variety of tumor lines are available for establishing bone metastases. These include PC-3, LuCaP35, and LnCaP cells which produce osteolytic lesions and LuCaP 23.1 cells which produce osterblastic lesions.
To evaluate the effectiveness of treatment with IMC-A12, LuCaP 23.1 xenograft tumors were engrafted in SCID mice, and serum PSA levels were measured biweekly to evaluate tumor growth. All animals were castrated two weeks prior to tibial tumor cell engraftment. Administration of IMC-A12 to test mice was begun when serum PSA levels reached 5-10 ng/ml (indicating established tumors). 40 mg/kg IMC-A12 was injected i.p. three times a week for six weeks.
Bone mineral density (BMD) of the tumored tibiae and the contralateral tibiae without tumor was measured by Dual X-ray absorptiometry (PIXImus Lunar densitometer) performed on a 2.5 mm×2.5 mm area at the tumor cell injection site, or the corresponding site of the contralateral tibia at the time of engraftment. Biweekly assessment of lesions was made by serum PSA measurements. All animals were sacrificed when the bone lesions in the control group had recurred after castration based on serum PSA levels (LuCaP 35 >60 ng/ml, ng/ml, LuCaP 23.1 >500 ng/ml), radiographical appearance of the bone lesions or when animals became compromised. One hour prior to sacrifice animals were injected with BrdU to monitor tumor cell proliferation. Radiographs were taken prior to sacrifice (FaxitronX-ray MX-20), and BMD of both tibiae were measured at the time of sacrifice.

[2] = Post-treatment serum levels of A12; assay type: in vivo, SCID mice
Experimental: Serum levels of A12 were measured in animals that had received docetaxel combined with A12.

LuCaP 35V xenograft [3] = test: Serum PSA in mice carrying LuCaP 35V xenografts (IMx Total PSA Assay); assay type: in vivo, castrated SCID mice
Experimental: (§1) All treatments were administered intraperitoneally (ip). Docetaxel was administered once a week. A12 was administered three times a week. […] Animals were weighed twice a week. Blood samples were collected from orbital sinus weekly.

LuCaP 35V xenograft [4] = test: LuCaP 35V subcutaneous xenograft tumor growth
Experimental: Tumor bits (20 to 30 mm^3) of androgen-independent (AI) LuCaP 35V were implanted subcutaneously (s.c.) into 32 six-week-old castrated SCID mice respectively as previously described (4). […] Group 1 animals received docetaxel treatment at a dose of 20 mg/kg. Group 2 animals received docetaxel treatment at a dose of 10 mg/kg. Group 3 animals received combined treatment of 10 mg/kg docetaxel and 40 mg/kg A12. Group 4 animals received combined treatment of 20 mg/kg docetaxel and 40 mg/kg A12. All treatments were administered intraperitoneally (ip). Docetaxel was administered once a week. A12 was administered three times a week. All animals were treated for four weeks and monitored for additional four weeks before euthanization. Tumors were measured twice weekly and tumor volume was estimated by the formula: volume=L×W^2/2. Following our University of Washington IACUC approved animal protocol, some animals were euthanized at an earlier time when tumor reached a volume of 1000 mm^3 or when animal weight loss exceeded 20% of initial body weight. Animals were weighed twice a week.

[5] = tested on: LuCaP 23.1 prostate cancer cells; test: IMC-A12 + docetaxel, LuCaP 23.1 tibial bone metastases, six weeks (present-tense example); assay type: in vivo, castrated SCID mice; details: weekly PSA, during and after six weeks of treatment
Experimental: SCID mice are castrated 2 weeks prior to tibial tumor injections. Bone metastases are generated by direct injection of LuCaP 23.1 prostate cancer cells into the tibia of the mice, giving rise to osteoblastic lesions. The xenografts express IGF-IR. Serum PSA levels are measured biweekly to evaluate tumor growth. When serum PSA levels reach 5-10 ng/ml indicating established tumor, animals are randomized into four groups.
In two groups, 40 mg/kg of IMC-A12 are injected i.p. three times a week for six weeks with one group receiving IMC-A12+docetaxel 20 mg/kg i.p once a week for 6 weeks and a second group IMC-A12+docetaxel 10 mg i.p. three times a week for 6 weeks. Control groups receive 10 or 20 mg docetaxel i.p. without IMC-A12.
Animals are monitored with weekly PSA measurements. After termination of treatment, animals continue to be monitored with weekly PSA measurements until tumors in the docetaxel only groups show tumor regrowth. […] Reductions in PSA levels are observed to continue, even after termination of treatment at six weeks.
As indicated above, BMD measurements are made at the time of engraftment and at sacrifice, and radiographs are taken just prior to sacrifice.

LuCaP 35V xenograft [6] = test: TUNEL / propidium staining flow cytometry of tumor cells at time of sacrifice; assay type: in vivo, castrated SCID mice; details: percentage of tumors; for Apoptosis (%): four weeks after treatment termination; for G1 arrest (%) / G2 arrest (%) / Normal cycle (%): time of sacrifice
Experimental: After euthanization, tumors were collected and halved. A portion of the tumors were fixed in 10% neutral buffer formalin (NFB) and embedded in paraffin. Five micron sections were prepared for immunohistochemistry (IHC) staining. The remaining portion of the tumors was separated into single cells mechanically by mincing and filtering through 70 μm nylon sieves.
The combined in vivo effect of docetaxel and A12 treatment on cell cycle and cell survival at the experimental end point was measured by terminal deoxynucleotidyl transferase-mediated nick end labeling (TUNEL) assay and propidium (PI) staining using the Apop-Direct kit (BD BioScience) as previously described. Briefly, 1×10^6 cells from the single-cell suspension were fixed with 10% neutral buffer formalin (NBF) followed by 70% ethanol alcohol at −20° C. for 30 min. After several washes, cells were permeabilized with 0.1% Triton X-100 and incubated with FITC-conjugated dUTP and terminal deoxynucleotidyl transferase enzyme (TdT) at 37° C. for 1 h, followed by an incubation with PI/RNase buffer (100 μg/ml of PI, 50 μg/ml RNase) at room temperature for 60 min. Samples were analyzed by flow cytometry using a BD FACscan. Data were analyzed with CellQuest^PRO software.

[7] = tested on: LuCaP 23.1 human prostate tumor; test: Docetaxel with or without A12, LuCaP 23.1 intratibial xenografts, four weeks; assay type: in vivo, SCID mice
Experimental: LuCaP 23.1 human prostate tumor bits (20 to 30 mm^3) were mechanically digested. 2-5×10^5 viable LuCaP 23.1 cells were injected into the tibiae of 6-8 wk old SCID mice. 21 mice randomized into three groups were used for the study. After tumor injection, serum PSA was monitored weekly. Treatment started when serum PSA level reached 5-10 ng/ml, an indication of tumor growth. Group 1 received control vehicle saline buffer. Group 2 received 20 mg/kg of docetaxel i.p once a week for 4 weeks. Group 3 received 20 mg/kg of docetaxel once a week and 40 mg/kg of A12 i.p. three times a week for 4 weeks. To determine whether the response to treatment was osteoblastic or osteolytic, BMD was measured by Dexa-scan and x-rays of the animals at the end point of all treatments.

[8] = Overall cytotoxicity of coadministration of docetaxel and IMC-A12; assay type: in vivo, SCID mice; details: compared to control tumor-bearing animals
Experimental: as §1
Cytotoxicity of coadministration of docetaxel and IMC-A12 was examined.

[9] = 40 mg/kg IMC-A12 i.p. three times a week for six weeks, at sacrifice

Sequence of murine IGF-IR (Q60751 31-1373): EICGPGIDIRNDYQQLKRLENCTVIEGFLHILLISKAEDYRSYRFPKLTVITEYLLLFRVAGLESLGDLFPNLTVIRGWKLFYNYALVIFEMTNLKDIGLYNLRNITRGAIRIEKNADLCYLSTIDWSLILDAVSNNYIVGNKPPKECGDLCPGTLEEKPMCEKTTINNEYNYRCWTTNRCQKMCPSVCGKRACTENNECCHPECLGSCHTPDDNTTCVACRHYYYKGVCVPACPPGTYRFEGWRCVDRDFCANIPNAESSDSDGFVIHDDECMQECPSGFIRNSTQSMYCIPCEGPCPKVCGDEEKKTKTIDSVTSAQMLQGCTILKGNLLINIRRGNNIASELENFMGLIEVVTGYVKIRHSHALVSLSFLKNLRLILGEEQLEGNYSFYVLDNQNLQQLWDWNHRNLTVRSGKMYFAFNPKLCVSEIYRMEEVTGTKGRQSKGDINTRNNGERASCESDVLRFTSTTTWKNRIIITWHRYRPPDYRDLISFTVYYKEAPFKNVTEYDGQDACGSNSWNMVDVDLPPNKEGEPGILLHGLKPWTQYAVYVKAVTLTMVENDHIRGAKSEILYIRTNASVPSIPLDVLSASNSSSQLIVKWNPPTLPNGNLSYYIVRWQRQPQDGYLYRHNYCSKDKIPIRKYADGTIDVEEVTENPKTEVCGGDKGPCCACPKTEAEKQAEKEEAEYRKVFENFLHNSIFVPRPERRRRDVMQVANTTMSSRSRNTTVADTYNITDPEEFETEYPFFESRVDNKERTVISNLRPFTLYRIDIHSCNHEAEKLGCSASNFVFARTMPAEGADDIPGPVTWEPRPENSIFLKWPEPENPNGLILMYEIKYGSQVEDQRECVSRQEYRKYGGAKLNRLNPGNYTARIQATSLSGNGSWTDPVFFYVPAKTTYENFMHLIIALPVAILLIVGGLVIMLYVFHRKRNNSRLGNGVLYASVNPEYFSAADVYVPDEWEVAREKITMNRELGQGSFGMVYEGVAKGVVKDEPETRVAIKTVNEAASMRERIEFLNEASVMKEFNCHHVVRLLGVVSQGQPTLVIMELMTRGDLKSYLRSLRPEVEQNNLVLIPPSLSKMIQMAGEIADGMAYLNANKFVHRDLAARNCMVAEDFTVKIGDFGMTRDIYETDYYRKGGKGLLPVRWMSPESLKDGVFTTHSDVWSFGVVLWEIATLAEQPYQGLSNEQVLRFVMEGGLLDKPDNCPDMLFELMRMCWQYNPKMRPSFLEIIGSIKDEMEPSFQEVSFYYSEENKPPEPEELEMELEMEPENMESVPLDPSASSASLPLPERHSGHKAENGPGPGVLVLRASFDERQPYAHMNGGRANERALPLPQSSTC

Which “inhibition of bone marrow aspirate induced Akt activation” value [1] does the source give for `COc1cc2ncc(-c3ccccc3)nc2cc1OC` [AG-1296, reference compound] here?
Its value is “more than 40%”.

What about the “inhibition of PDGF-BB induced Akt activation” value ([1]; 30 ng/ml PDGF-BB) of the same compound?
Its value is “completely inhibits”.

Which results are given for “IMC-A12: human IgG1 anti-IGF-IR antibody; heavy chain variable domain SEQ ID NO:41, light chain variable domain SEQ ID NO:51”?
cross-reactivity with murine IGF-IR (murine IGF-IR): greater than 95%; loss of bone density (osteoporosis), non-tumored legs (LuCaP 23.1 xenograft; 40 mg/kg IMC-A12): did not cause a loss of bone density; Bone mineral density (BMD), Non-tumored leg, Mean (LuCaP 23.1 xenograft; [9]): 0.045; Bone mineral density (BMD), Tumored Leg, Mean (LuCaP 23.1 xenograft; [9]): significantly reduced; Bone mineral density (BMD), Tumored Leg, Mean (LuCaP 23.1 xenograft; 40 mg/kg IMC-A12 i.p. three times a week for six weeks, at sacrifice, listed as A12): 0.060; Serum PSA levels (LuCaP 23.1 xenograft; 40 mg/kg IMC-A12 vs untreated): significantly lower; tumor progression on radiographs (LuCaP 23.1 xenograft; 40 mg/kg IMC-A12 vs untreated): significantly reduced or prevented; serum A12 level ([2]; four weeks after treatment cessation): very low level; decline of serum A12 levels ([2]; two weeks after treatment cessation, animals received docetaxel combined with A12): 100 fold

Which results are given for `CC(=O)O[C@@]12CO[C@@H]1C[C@H](O)[C@@]1(C)C(=O)[C@H](O)C3=C(C)[C@@H](OC(=O)[C@H](O)[C@@H](NC(=O)OC(C)(C)C)c4ccccc4)C[C@@](O)([C@@H](OC(=O)c4ccccc4)[C@H]21)C3(C)C` [docetaxel]?
serum PSA level during the four-week treatment (LuCaP 35V xenograft [3]; A12 + docetaxel, or 20 mg/kg docetaxel alone): no significant change; serum PSA level after treatment termination (LuCaP 35V xenograft [3]; mouse, in vivo): increased; rate of tumor volume increase in the four weeks following treatment termination (LuCaP 35V xenograft [4]; docetaxel 20 mg/kg alone): 27.0±16.1 mm^3/week; tumor volume during the four-week treatment period (LuCaP 35V xenograft [4]; docetaxel 20 mg/kg with or without combined A12): tumor volume did not increase; tumor growth rate during treatment (LuCaP 35V xenograft [4]; four-week ip treatment, A12 alone 40 μg/kg as printed, docetaxel 10 mg/kg, docetaxel 10 mg/kg + A12): 29.6±6.1 mm^3/week; PSA levels [5]: rise; Apoptosis (%) (LuCaP 35V xenograft [6]; docetaxel 10 mg/kg groups): No apoptosis; Apoptosis (%) (LuCaP 35V xenograft [6]; docetaxel 10 mg/kg groups, listed as Doc (10)): 0%; G1 arrest (%) (LuCaP 35V xenograft [6]; docetaxel 10 mg/kg groups): 0%; G2 arrest (%) (LuCaP 35V xenograft [6]; docetaxel 10 mg/kg groups): 12%; Normal cycle (%) (LuCaP 35V xenograft [6]; docetaxel 10 mg/kg groups): 88%; Apoptosis (%) (LuCaP 35V xenograft [6]; docetaxel 20 mg/kg groups): No apoptosis; Apoptosis (%) (LuCaP 35V xenograft [6]; docetaxel 20 mg/kg groups, listed as Doc (20)): 0%; G1 arrest (%) (LuCaP 35V xenograft [6]; docetaxel 20 mg/kg groups): 0%; G2 arrest (%) (LuCaP 35V xenograft [6]; docetaxel 20 mg/kg groups): 0%; Normal cycle (%) (LuCaP 35V xenograft [6]; docetaxel 20 mg/kg groups): 100%; LuCaP 23.1 tumor growth as reflected by serum PSA levels during treatment ([7]; docetaxel 20 mg/kg once a week, A12 40 mg/kg three times a week, 4 weeks): significantly inhibited; serum PSA after treatment cessation ([7]; docetaxel 20 mg/kg, A12 40 mg/kg): began to increase; average bone density (mean±SEM) ([7]; week five, docetaxel 20 mg/kg, A12 40 mg/kg): 0.09±0.02; daily activity or behavior [8]: no abnormal daily activity or behavior changes
